# According to US20060069132A1, “Azolecarboxamide herbicides” (priority 2004, published 2006):
# Tests used:
# giant foxtail [1] = test: Test A pre-/postemergence herbicide test; format: in vivo, Setaria faberi
# Procedure, shortened: (§1)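 Pre: seeded sandy loam, directed soil spray, compound in non-phytotoxic solvent + surfactant. Post: 1–2-leaf plants (2–10 cm), sprayed to runoff. Greenhouse ~10 d; visual injury vs untreated, 0–100 scale.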
# [2] = system: small flower umbrella sedge; test: Test B flooded paddy test; format: in vivo, Cyperus difformis; conditions: 1000 g ai/ha, scale 0 to 100 (0 no effect, 100 complete control)
# Procedure, shortened: (§2)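 Each value is a visual 0–100 response rating taken against controls 13 to 15 days after treatment in the greenhouse. Plants received formulated chemical postemergence at the 1- to 4-leaf stage or, in flooded paddy, at the 2-leaf stage.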
# morningglory [3] = test: Test A pre-/postemergence herbicide test; format: in vivo, Ipomoea spp.
# Procedure, shortened: as §1
# rice [4] = test: Test B flooded paddy test; format: in vivo, Oryza sativa; conditions: 1000 g ai/ha, scale 0 to 100 (0 no effect, 100 complete control)
# Procedure, shortened: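 Visual ratings, 0 (no effect) to 100 (complete control), made versus controls after 13–15 d greenhouse. Paddy plants treated at 2-leaf stage; postemergence plants at 1- to 4-leaf stage, 2–18 cm tall.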
# ducksalad [5] = test: Test C flooded paddy test; format: in vivo, Heteranthera limosa
# barnyardgrass [6] = test: Test C flooded paddy test; format: in vivo, Echinochloa crus-galli
# Procedure, shortened: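 Ratings (0 = no effect, 100 = complete control) come from visual comparison with untreated plants after 12 to 14 days in the greenhouse. Treatment was postemergence at the 1- to 4-leaf stage (2–18 cm), or at the 2-leaf stage for the flooded paddy barnyardgrass.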
# ducksalad [7] = test: Test B flooded paddy test; format: in vivo, Heteranthera limosa; conditions: 1000 g ai/ha, scale 0 to 100 (0 no effect, 100 complete control)
# Procedure, shortened: as §2
# barnyardgrass [8] = test: Test A pre-/postemergence herbicide test; format: in vivo, Echinochloa crus-galli
# Procedure, shortened: as §1
# velvetleaf [9] = test: Test A pre-/postemergence herbicide test; format: in vivo, Abutilon theophrasti
# Procedure, shortened: as §1
# rice [10] = test: Test C flooded paddy test; format: in vivo, Oryza sativa
# Procedure, shortened: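 Plants were grown to the 1- to 4-leaf stage (2–18 cm) and then treated postemergence, or grown to the 2-leaf stage for the flooded paddy test. They were held in a greenhouse for 12 to 14 days and then scored by eye against controls, where 0 is no effect and 100 is complete control.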
# barnyardgrass [11] = test: Test B flooded paddy test; format: in vivo, Echinochloa crus-galli; conditions: 1000 g ai/ha, scale 0 to 100 (0 no effect, 100 complete control)
# Procedure, shortened: as §2
# large crabgrass [12] = test: Test A pre-/postemergence herbicide test; format: in vivo, Digitaria sanguinalis
# Procedure, shortened: as §1
# [13] = system: smallflower umbrella sedge; test: Test C flooded paddy test; format: in vivo, Cyperus difformis
# redroot pigweed = test: Test A pre-/postemergence herbicide test; format: in vivo, Amaranthus retroflexus
# Procedure, shortened: as §1
# pigweed = test: Test B pre-/postemergence herbicide test; format: in vivo, Amaranthus retroflexus
# Procedure, shortened: (§3)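 Seeds were planted and treated preemergence with compounds formulated in a non-phytotoxic solvent mixture containing surfactant, while plants at the 1- to 4-leaf stage (2 to 18 cm) received postemergence sprays. Flooded paddy plants were grown to the 2-leaf stage. After 13 to 15 days in a greenhouse, injury was visually rated 0–100 against untreated controls.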
# corn = test: Test B pre-/postemergence herbicide test; format: in vivo, Zea mays
# Procedure, shortened: as §3
# blackgrass = test: Test B postemergence herbicide test; format: in vivo, Alopecurus myosuroides; conditions: scale 0 (no effect) to 100 (complete control)
# Procedure, shortened: as §2
# velvetleaf [14] = test: Test B pre-/postemergence herbicide test; format: in vivo, Abutilon theophrasti
# Procedure, shortened: as §3
# wheat = test: Test B postemergence herbicide test; format: in vivo, Triticum aestivum; set-up: key to Wheat plant response rating: 0 = no effect, 100 = complete control; conditions: scale 0 (no effect) to 100 (complete control)
# Procedure, shortened: as §2
# wild oat = test: Test B postemergence herbicide test; format: in vivo, Avena fatua; conditions: scale 0 (no effect) to 100 (complete control)
# Procedure, shortened: as §2
# morningglory [15] = test: Test B pre-/postemergence herbicide test; format: in vivo, Ipomoea coccinea
# Procedure, shortened: (§4)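 Evaluation is visual, comparing treated with control plants on a scale where 0 means no effect and 100 means full control. Treatments were preemergence, or postemergence on seedlings 2–18 cm tall, and held 13–15 days in the greenhouse.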
# large crabgrass [16] = test: Test B pre-/postemergence herbicide test; format: in vivo, Digitaria sanguinalis
# Procedure, shortened: as §3
# giant foxtail [17] = test: Test B pre-/postemergence herbicide test; format: in vivo, Setaria faberi
# Procedure, shortened: as §3
# Surinam grass = test: Test B pre-/postemergence herbicide test; format: in vivo, Urochloa decumbens
# Procedure, shortened: as §3
# lambsquarters = test: Test B pre-/postemergence herbicide test; format: in vivo, Chenopodium album
# Procedure, shortened: as §3
# barnyardgrass [18] = test: Test B pre-/postemergence herbicide test; format: in vivo, Echinochloa crus-galli
# Procedure, shortened: as §4
# cocklebur = test: Test B pre-/postemergence herbicide test; format: in vivo, Xanthium strumarium
# Procedure, shortened: as §4
# [19] = Postemergence, 500 g ai/ha, 0 to 100 scale, 0 no effect, 100 complete control
# [20] = Postemergence, 2000 g ai/ha, 0 to 100 scale, 0 no effect, 100 complete control
# [21] = Preemergence, 2000 g ai/ha, visual rating, 0 to 100 scale (0 no effect, 100 complete control)
# [22] = preemergence, 500 g ai/ha, visual injury, 0 to 100 scale (0 no effect, 100 complete control)
# [23] = 125 g ai/ha, scale 0 to 100 (0 no effect, 100 complete control)
# [24] = 250 g ai/ha, scale of 0 to 100, 0 is no effect, 100 is complete control
# [25] = 500 g ai/ha, visual rating after 12 to 14 days, scale 0 to 100 (0 no effect, 100 complete control)
# [26] = Postemergence, 125 g ai/ha, 0 to 100 scale, 0 no effect, 100 complete control
# [27] = Preemergence, 500 g ai/ha, visual rating, 0 to 100 scale (0 no effect, 100 complete control)
# [28] = preemergence, 125 g ai/ha, visual injury, 0 to 100 scale (0 no effect, 100 complete control)
# [29] = 500 g ai/ha, visual rating 0-100, 0 no effect, 100 complete control, preemergence
# [30] = Postemergence, 500 g ai/ha, visual rating after 13 to 15 days, scale 0 (no effect) to 100 (complete control)
# [31] = postemergence, 125 g ai/ha, visual rating, scale 0 (no effect) to 100 (complete control)
# [32] = preemergence, 125 g ai/ha, 0 to 100 scale, 0 is no effect, 100 is complete control
# [33] = Postemergence, 500 g ai/ha, visual rating after 13 to 15 days
# [34] = postemergence, 125 g ai/ha, visual rating
structure (smiles),measurement,setting,value
CCOC(=O)c1cncc(NC(=O)c2cc(C(C)(C)C)nn2CC)c1 [Compound 255],"Foxtail, Giant plant response rating",giant foxtail [1]; [19],30
same,"Plant response rating, Foxtail, Giant",giant foxtail [1]; [20],55
same,"Foxtail, Giant plant response rating",giant foxtail [1]; [21],60
same,"Foxtail, Giant plant response rating",giant foxtail [1]; [22],45
same,"Sedge, Umbrella plant response rating",[2],80
same,Morningglory plant response rating,morningglory [3]; [19],10
same,"Plant response rating, Morningglory",morningglory [3]; [20],25
same,Morningglory plant response rating,morningglory [3]; [21],70
same,Morningglory plant response rating,morningglory [3]; [22],30
same,Rice plant response rating,rice [4],70
same,Ducksalad plant response rating,"ducksalad [5]; 62 g ai/ha, scale 0 to 100",0
same,Ducksalad plant response rating,ducksalad [5]; [23],10
same,Ducksalad plant response rating,ducksalad [5]; [24],35
same,"Plant response rating, Ducksalad",ducksalad [5]; [25],40
same,Barnyardgrass plant response rating,"barnyardgrass [6]; 62 g ai/ha, scale 0 to 100 (0 no effect, 100 complete control)",0
same,Barnyardgrass plant response rating,barnyardgrass [6]; [23],10
same,Barnyardgrass plant response rating,barnyardgrass [6]; [24],25
same,"Plant response rating, Barnyardgrass",barnyardgrass [6]; [25],35
same,Ducksalad plant response rating,ducksalad [7],80
same,Barnyardgrass plant response rating,barnyardgrass [8]; [19],40
same,"Plant response rating, Barnyardgrass",barnyardgrass [8]; [20],70
same,Barnyardgrass plant response rating,barnyardgrass [8]; [21],75
same,Barnyardgrass plant response rating,barnyardgrass [8]; [22],55
same,Velvetleaf plant response rating,velvetleaf [9]; [19],35
same,"Plant response rating, Velvetleaf",velvetleaf [9]; [20],50
same,Velvetleaf plant response rating,velvetleaf [9]; [21],50
same,Velvetleaf plant response rating,velvetleaf [9]; [22],30
same,Rice plant response rating,"rice [10]; 62 g ai/ha, scale 0 to 100",0
same,Rice plant response rating,rice [10]; [23],0
same,Rice plant response rating,rice [10]; [24],45
same,"Plant response rating, Rice",rice [10]; [25],50
same,Barnyardgrass plant response rating,barnyardgrass [11],70
same,"Crabgrass, Large plant response rating",large crabgrass [12]; [19],20
same,"Plant response rating, Crabgrass, Large",large crabgrass [12]; [20],40
same,"Crabgrass, Large plant response rating",large crabgrass [12]; [21],55
same,"Crabgrass, Large plant response rating",large crabgrass [12]; [22],35
same,"Sedge, Umbrella plant response rating","[13]; 62 g ai/ha, scale 0 to 100",0
same,"Sedge, Umbrella plant response rating",[13]; [23],20
same,"Sedge, Umbrella plant response rating",[13]; [24],35
same,"Plant response rating, Sedge, Umbrella",[13]; [25],45
same,Pigweed plant response rating,redroot pigweed; [19],70
same,"Plant response rating, Pigweed",redroot pigweed; [20],100
same,Pigweed plant response rating,redroot pigweed; [21],100
same,Pigweed plant response rating,redroot pigweed; [22],90
CC(=NO)c1cccc(NC(=O)c2cc(C(C)(C)C)nn2C(C)C)c1 [Compound 110],"Foxtail, Giant plant response rating",giant foxtail [1]; [26],20
same,"Foxtail, Giant plant response rating",giant foxtail [1]; [19],25
same,"Foxtail, Giant plant response rating",giant foxtail [1]; [27],0
same,"Foxtail, Giant plant response rating",giant foxtail [1]; [28],0
same,"Plant response rating, Pigweed",pigweed; [29],10
same,"Plant response rating, Pigweed",pigweed; [30],50
same,Pigweed plant response rating,pigweed; [31],20
same,"Plant response rating, Pigweed",pigweed; [32],0
same,"Plant response rating, Corn",corn; [29],0
same,"Plant response rating, Corn",corn; [30],20
same,Corn plant response rating,corn; [31],10
same,"Plant response rating, Corn",corn; [32],0
same,"Sedge, Umbrella plant response rating","[2]; visual rating, 13 to 15 days",20
same,Morningglory plant response rating,morningglory [3]; [26],0
same,Morningglory plant response rating,morningglory [3]; [19],10
same,Morningglory plant response rating,morningglory [3]; [27],20
same,Morningglory plant response rating,morningglory [3]; [28],10
same,Rice plant response rating,"rice [4]; visual rating, 13 to 15 days",20
same,"Plant response rating, Blackgrass",blackgrass; [33],0
same,Blackgrass plant response rating,blackgrass; [34],0
same,"Plant response rating, Velvetleaf",velvetleaf [14]; [29],10
same,"Plant response rating, Velvetleaf",velvetleaf [14]; [30],40
same,Velvetleaf plant response rating,velvetleaf [14]; [31],30
same,"Plant response rating, Velvetleaf",velvetleaf [14]; [32],0
same,"Plant response rating, Wheat",wheat; [33],30
same,Wheat plant response rating,wheat; [34],10
same,Ducksalad plant response rating,"ducksalad [7]; visual rating, 13 to 15 days",0
same,Barnyardgrass plant response rating,barnyardgrass [8]; [26],30
same,Barnyardgrass plant response rating,barnyardgrass [8]; [19],30
same,Barnyardgrass plant response rating,barnyardgrass [8]; [27],5
same,Barnyardgrass plant response rating,barnyardgrass [8]; [28],10
same,Velvetleaf plant response rating,velvetleaf [9]; [26],10
same,Velvetleaf plant response rating,velvetleaf [9]; [19],10
same,Velvetleaf plant response rating,velvetleaf [9]; [27],10
same,Velvetleaf plant response rating,velvetleaf [9]; [28],10
same,"Plant response rating, Oat, Wild",wild oat; [33],0
same,"Oat, Wild plant response rating",wild oat; [34],0
same,"Plant response rating, Morningglory",morningglory [15]; [29],60
same,"Plant response rating, Morningglory",morningglory [15]; [30],30
same,Morningglory plant response rating,morningglory [15]; [31],20
same,"Plant response rating, Morningglory",morningglory [15]; [32],20
same,"Plant response rating, Crabgrass, Large",large crabgrass [16]; [29],100
same,"Plant response rating, Crabgrass, Large",large crabgrass [16]; [30],20
same,"Crabgrass, Large plant response rating",large crabgrass [16]; [31],10
same,"Plant response rating, Crabgrass, Large",large crabgrass [16]; [32],80
same,"Plant response rating, Foxtail, Giant",giant foxtail [17]; [29],20
same,"Plant response rating, Foxtail, Giant",giant foxtail [17]; [30],10
same,"Foxtail, Giant plant response rating",giant foxtail [17]; [31],10
same,"Plant response rating, Foxtail, Giant",giant foxtail [17]; [32],10
same,Barnyardgrass plant response rating,"barnyardgrass [11]; visual rating, 13 to 15 days",30
same,"Crabgrass, Large plant response rating",large crabgrass [12]; [26],25
same,"Crabgrass, Large plant response rating",large crabgrass [12]; [19],30
same,"Crabgrass, Large plant response rating",large crabgrass [12]; [27],20
same,"Crabgrass, Large plant response rating",large crabgrass [12]; [28],15
same,"Plant response rating, Surinam Grass",Surinam grass; [29],10
same,"Plant response rating, Surinam Grass",Surinam grass; [30],30
same,Surinam Grass plant response rating,Surinam grass; [31],20
same,"Plant response rating, Surinam Grass",Surinam grass; [32],10
same,"Plant response rating, Lambsquarters",lambsquarters; [29],90
same,"Plant response rating, Lambsquarters",lambsquarters; [30],60
same,Lambsquarters plant response rating,lambsquarters; [31],40
same,"Plant response rating, Lambsquarters",lambsquarters; [32],20
same,Pigweed plant response rating,redroot pigweed; [26],40
same,Pigweed plant response rating,redroot pigweed; [19],50
same,Pigweed plant response rating,redroot pigweed; [27],10
same,Pigweed plant response rating,redroot pigweed; [28],10
same,"Plant response rating, Barnyardgrass",barnyardgrass [18]; [29],10
same,"Plant response rating, Barnyardgrass",barnyardgrass [18]; [30],20
same,Barnyardgrass plant response rating,barnyardgrass [18]; [31],10
same,"Plant response rating, Barnyardgrass",barnyardgrass [18]; [32],10
same,"Plant response rating, Cocklebur",cocklebur; [29],10
same,"Plant response rating, Cocklebur",cocklebur; [30],40
same,Cocklebur plant response rating,cocklebur; [31],10
same,"Plant response rating, Cocklebur",cocklebur; [32],0
